Reference: ChEMBL document CHEMBL6127063, “N-substituted-4-(pyridin-4-ylalkyl)piperazine-1-carboxamides and related compounds as Leishmania CYP51 and CYP5122A1 inhibitors” (Bioorg Med Chem, 2024)
Calls of active or inactive are those of the source. The calls are words filed in the database; no cut-off is given here.

Tests used:
[1] = tested on: Leishmania donovani; assay: Antileishmanial activity against Leishmania donovani LV82 promastigotes assessed as inhibition of parasite proliferation; assay type: functional, organism-based
[2] = tested on: Leishmania donovani; assay: Antileishmanial activity against Leishmania donovani overexpressing CYP5122A1 at 1.2 to […]; assay type: functional, organism-based; conditions: dose 1.2-3.7 µM
[3] = tested on: Leishmania major; assay: Effect on Ergosterol level in Leishmania major LV39 promastigotes assessed as fold change at 2 uM incubated for 48 hrs by LC-MS/MS analysis; assay type: functional
[4] = tested on: Leishmania major; assay: Effect on 4,14-Dimethylzymosterol level in Leishmania major LV39 promastigotes assessed as fold change at 2 uM incubated for 48 hrs by LC-MS/MS analysis; assay type: functional
[5] = tested on: Leishmania major; assay: Effect on lanosterol level in Leishmania major LV39 promastigotes assessed as fold change at 2 uM incubated for 48 hrs by LC-MS/MS analysis; assay type: functional
[6] = tested on: Leishmania major; assay: Effect on 14-methylzymosterol level in Leishmania major LV39 promastigotes assessed as fold change at 2 uM incubated for 48 hrs by LC-MS/MS analysis; assay type: functional
[7] = tested on: Leishmania major; assay: Effect on Cholesterol level in Leishmania major LV39 promastigotes assessed as fold change at 2 uM incubated for 48 hrs by LC-MS/MS analysis; assay type: functional
[8] = tested on: Leishmania major; assay: Effect on Ergosta-5,7-dienol level in Leishmania major LV39 promastigotes assessed as fold change at 2 uM incubated for 48 hrs by LC-MS/MS analysis; assay type: functional
[9] = tested on: Leishmania major; assay: Effect on 14-Methylfecosterol level in Leishmania major LV39 promastigotes assessed as fold change at 2 uM incubated for 48 hrs by LC-MS/MS analysis; assay type: functional
[10] = tested on: Leishmania major; assay: Effect on 5-Dehydroepisterol level in Leishmania major LV39 promastigotes assessed as fold change at 2 uM incubated for 48 hrs by LC-MS/MS analysis; assay type: functional
[11] = tested on: Leishmania major; assay: Effect on 4-CH2OH-LS sterol level in Leishmania major LV39 promastigotes assessed as fold change at 2 uM incubated for 48 hrs by LC-MS/MS analysis; assay type: functional

Row | Structure (SMILES) | EC50 [1] [µM] | other results
1 | O=C(Nc1cc(F)cc(F)c1)N1CCN(Cc2ccncc2)CC1 | > 100 | –
2 | O=C(Nc1ccc(Cl)cc1)N1CCN(Cc2ccncc2)CC1 | > 100 | –
3 | O=C(Nc1cccc(F)c1)N1CCN(Cc2ccncc2)CC1 | > 100 | –
4 | COc1cc(NC(=O)N2CCN(Cc3ccncc3)CC2)cc(OC)c1 | > 100 | –
5 | O=C(Nc1ccccc1Cl)N1CCN(Cc2ccncc2)CC1 | > 100 | –
6 | O=C(Nc1ccc(OCc2cc(C(F)(F)F)cc(C(F)(F)F)c2)cc1)N1CCN(CCc2ccncc2)CC1 | – | Activity [2]: Active
7 | O=C(Nc1ccccc1)N1CCN(Cc2ccncc2)CC1 | > 100 | –
8 | Cc1cc(NC(=O)N2CCN(Cc3ccncc3)CC2)cc(C)c1C | > 50 | –
9 | O=C(Nc1ccc(OCc2ccccc2)cc1)N1CCN(CCc2ccncc2)CC1 | > 100 | –
10 | COc1cccc(NC(=O)N2CCN(Cc3ccncc3)CC2)c1 | > 100 | –
11 | Cc1ccccc1NC(=O)N1CCN(Cc2ccncc2)CC1 | > 100 | –
12 | CC(C)Oc1cccc(NC(=O)N2CCN(Cc3ccncc3)CC2)c1 | > 50 | –
13 | CC[C@@H]([C@H](C)O)n1ncn(-c2ccc(N3CCN(c4ccc(OC[C@@H]5CO[C@@](Cn6cncn6)(c6ccc(F)cc6F)C5)cc4)CC3)cc2)c1=O [POSACONAZOLE] | – | fold change (FC) [3]: 0.027; fold change (FC) [4]: 10; fold change (FC) [5]: 3.6; fold change (FC) [6]: 3.1; fold change (FC) [7]: 1.3; fold change (FC) [8]: 0.022; fold change (FC) [9]: 321; fold change (FC) [10]: 0.02; fold change (FC) [11]: 1.4
